The values that follow come from patent US20110003888A1, “HOPS EXTRACTION METHODS AND MIXTURES” (Bioactives, Inc., priority 2007, published 2011).

A value given as a limit tells only on which side of the number the result lay.

One data set concerns the target T1, Cyp1 A2 (Homo sapiens, UniProt P05177).
T1 sequence (P05177 1-516): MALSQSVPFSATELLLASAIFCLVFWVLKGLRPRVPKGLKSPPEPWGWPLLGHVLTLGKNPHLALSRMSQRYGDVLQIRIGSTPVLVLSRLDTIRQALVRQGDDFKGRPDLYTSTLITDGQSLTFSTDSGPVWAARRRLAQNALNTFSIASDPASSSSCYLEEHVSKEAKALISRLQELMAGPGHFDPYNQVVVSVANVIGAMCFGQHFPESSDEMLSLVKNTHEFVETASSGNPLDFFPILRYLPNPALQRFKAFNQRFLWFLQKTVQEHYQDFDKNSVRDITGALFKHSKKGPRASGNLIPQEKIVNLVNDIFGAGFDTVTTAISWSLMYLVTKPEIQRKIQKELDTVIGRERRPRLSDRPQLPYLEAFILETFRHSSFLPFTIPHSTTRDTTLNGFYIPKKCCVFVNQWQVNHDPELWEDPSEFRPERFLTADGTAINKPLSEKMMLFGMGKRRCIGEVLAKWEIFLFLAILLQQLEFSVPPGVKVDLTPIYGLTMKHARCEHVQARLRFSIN
Conditions: cDNA-expressed human Cyp1 A2; cited from earlier work.

In a further data set the target is T2, Cyp1 A1 (Homo sapiens, UniProt P04798).
T2 sequence (P04798 1-512): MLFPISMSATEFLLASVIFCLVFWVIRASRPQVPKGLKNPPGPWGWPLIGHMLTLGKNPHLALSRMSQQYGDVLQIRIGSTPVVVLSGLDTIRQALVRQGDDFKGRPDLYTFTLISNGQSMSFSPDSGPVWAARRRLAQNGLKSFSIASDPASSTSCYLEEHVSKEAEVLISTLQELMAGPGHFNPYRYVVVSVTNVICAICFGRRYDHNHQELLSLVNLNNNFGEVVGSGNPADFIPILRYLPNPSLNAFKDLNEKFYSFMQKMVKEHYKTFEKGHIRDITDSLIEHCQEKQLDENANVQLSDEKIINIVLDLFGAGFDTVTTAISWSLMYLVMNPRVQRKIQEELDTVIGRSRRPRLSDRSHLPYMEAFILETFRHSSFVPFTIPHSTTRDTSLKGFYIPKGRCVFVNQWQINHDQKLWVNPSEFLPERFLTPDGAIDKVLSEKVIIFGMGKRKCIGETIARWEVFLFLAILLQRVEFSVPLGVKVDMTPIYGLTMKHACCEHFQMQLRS
Conditions: cDNA-expressed human Cyp1 A1; cited from earlier work.

The next data set has as its target T3, Cyp1B1 (Homo sapiens, UniProt Q16678).
T3 sequence (Q16678 1-543): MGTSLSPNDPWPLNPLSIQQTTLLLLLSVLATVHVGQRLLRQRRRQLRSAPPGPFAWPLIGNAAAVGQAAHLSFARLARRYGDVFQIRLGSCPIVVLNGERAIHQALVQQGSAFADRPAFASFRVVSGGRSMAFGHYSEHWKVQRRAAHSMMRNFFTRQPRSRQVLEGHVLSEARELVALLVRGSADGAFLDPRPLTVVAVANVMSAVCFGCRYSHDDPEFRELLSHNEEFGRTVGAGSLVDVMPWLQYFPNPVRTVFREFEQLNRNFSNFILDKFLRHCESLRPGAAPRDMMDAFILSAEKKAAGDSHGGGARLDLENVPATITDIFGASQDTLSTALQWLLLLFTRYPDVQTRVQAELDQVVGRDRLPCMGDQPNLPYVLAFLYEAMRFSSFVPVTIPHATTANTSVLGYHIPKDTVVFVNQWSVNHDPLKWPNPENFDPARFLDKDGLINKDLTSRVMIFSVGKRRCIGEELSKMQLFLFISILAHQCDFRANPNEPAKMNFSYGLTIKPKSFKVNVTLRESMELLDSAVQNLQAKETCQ
To be noted: cDNA-expressed human Cyp1B1; cited from earlier work.

A further data set is described as follows: in vitro. Conditions: human, Caco-2. The method, then: (§1) To test the permeability of xanthohumol across Caco-2 cell monolayers, Caco-2 cell monolayers were grown to confluence on collagen-coated, microporous, polycarbonate membranes in 12-well Costar Transwell® plates. Details of the plates and their certification are shown below in Table 3. The test article was also the aqueous xanthohumol formulation, and the dosing concentration was 2 μM in the assay buffer (HBSSg) as in the previous example. Cell monolayers were dosed on the apical side (A-to-B) or basolateral side (B-to-A) and incubated at 37° C. with 5% CO2 in a humidified incubator. Samples were taken from the donor chamber at 120 minutes, and samples from the receiver chamber were collected at 60 and 120 minutes. Each determination was performed in duplicate. Lucifer yellow permeability was also measured for each monolayer after being subjected to the test article to ensure no damage was inflicted to the cell monolayers during the permeability experiment. All samples were assayed for Xanthohumol by LC/MS/MS using electrospray ionization. The apparent permeability (Papp), and percent recovery were calculated as described above.

A further data set relates to endothelial cells. Conditions: in vitro model, endothelial cells invading collagen gel and forming capillary-like tubes; cited from earlier work.
Data set [1] concerns Caco-2 cell monolayers. Nature of the data set: Permeability across Caco-2 cell monolayers. It counts as in vitro ADME. The method, then: (§2) Percent Recovery=100×((Vr×Cr^final)+(Vd×Cd^final))/(Vd×C0) • Where: • dCr/dt is the slope of the cumulative concentration in the receiver compartment versus time in μM s^−1. • Vr is the volume of the receiver compartment in cm^3. • Vd is the volume of the donor compartment in cm^3. • A is the area of the cell-free insert (1.13 cm^2 for 12-well Transwell). • Cr^final is the cumulative receiver concentration in μM at the end of the incubation period. • Cd^final is the concentration of the donor in μM at the end of the incubation period. • C0 is the initial concentration of the dosing solution in μM.
(§3) Each determination was performed in duplicate.
For orientation: Passage across Caco-2 layers is used to estimate intestinal permeability.

Data set [2] is described as follows: Permeability across Caco-2 cell monolayers. Format: in vitro ADME. Conditions: human. The protocol:
as §2, §3

A further data set relates to inducible COX-2. To be noted: read-out: IC50, inhibition of cyclooxygenase; cited from earlier work.
Data set [3] is described as follows: Permeability through cell-free (blank) microporous membrane filter, non-specific binding assessment. It counts as in vitro ADME. To be noted: not told, pH 7.4, cell-free filter; for Papp A→B at 120 min, 2 μM: xanthohumol gel formulation at 2 μM xanthohumol; for recovery at 120 min, 2 μM: xanthohumol gel formulation at 2 μM. The method, then: The permeability of the xanthohumol gel through a cell-free (blank) microporous 0.4 micron membrane filter was studied in order to determine the non-specific binding and cell-free diffusion Papp of the xanthohumol gel formulation. The xanthohumol gel formulation was assayed at a 2 μM xanthohumol concentration in Hanks buffer (Hanks Balanced Salt Solution (HBSSg) containing 10 mM HEPES and 15 mM glucose) at a pH of 7.4 in duplicate. Donor samples were collected at 120 minutes. Receiver samples were collected at 60 and 120 minutes. The apparent permeability coefficient, Papp, and percent recovery were calculated as follows:
as §2

In data set [4] the test system is Caco-2 cell monolayers. As to the kind of experiment: Caco-2 Transwell plate certification with control compounds. To be noted: Caco-2 plate certification, TW12, passage 63, age 22 days. The protocol: as §1

As to `COc1cc(O)c(CC=C(C)C)c2c1C(=O)CC(c1ccc(O)cc1)O2` (stereo not shown) [isoxanthohumol], the “Inhibition of cytochrome P450 enzyme” value on Cyp1 A2, on Cyp1 A1 and at Cyp1B1 was “strongly inhibit” each time.
By Papp is commonly meant a coefficient for how fast a substance crosses the barrier. Compound `CC(C)NCC(O)COc1cccc2ccccc12` (stereo not shown) [Propranolol] showed a Papp in the data set “in vitro” of 20.6 ×10⁻⁶ cm/s.
Consider `CC(C)=CCc1c(O)cc(O)c2c1O[C@H](c1ccc(O)cc1)CC2=O` [8-prenylnaringenin], for which the “Inhibition of cytochrome P450 enzyme” value on Cyp1 A2, on Cyp1 A1 and at Cyp1B1 was “strongly inhibit” each time. For the same compound, the Effect on angiogenesis result with endothelial cells is listed as “inhibits angiogenesis”.
Usually efflux ratio stands for the permeability from basolateral to apical divided by that in the opposite direction, in the common usage. On to `C[C@H]1O[C@@H](O[C@H]2[C@@H](O)C[C@H](O[C@H]3[C@@H](O)C[C@H](O[C@H]4CC[C@@]5(C)[C@H](CC[C@@H]6[C@@H]5C[C@@H](O)[C@]5(C)[C@@H](C7=CC(=O)OC7)CC[C@]65O)C4)O[C@@H]3C)O[C@@H]2C)C[C@H](O)[C@@H]1O` [Digoxin], for which the efflux ratio in the data set “in vitro” is 16.6.
For orientation: Papp A→B means the apparent permeability from the apical to the basolateral side of a cell layer. The Papp B→A is the apparent permeability from the basolateral to the apical side of a cell layer. As usually defined, the IC50 is the concentration that gives 50% inhibition. On to `COc1cc(O)c(CC=C(C)C)c(O)c1C(=O)/C=C/c1ccc(O)cc1` [Xanthohumol, xanthohumol], for which the “Significant Efflux” value with Caco-2 cell monolayers [1] (Caco-2) is recorded as “No”. The efflux ratio at 120 min, 2 μM in data set [2] (Caco-2, pH 7.4) was determined as 2.1. In addition, the Papp A→B at 120 min, 2 μM in [2] (Caco-2, pH 7.4, Papp) is 0.84 ×10⁻⁶ cm/s; in data set [3] (pH 7.4, Rep. 1), 18.6 ×10⁻⁶ cm/s; in [3] (pH 7.4, Rep. 2) it was 17.1 ×10⁻⁶ cm/s; in data set [3] (pH 7.4, average N = 2), 17.9 ×10⁻⁶ cm/s. For the same compound, the basolateral-to-apical permeability (Papp B→A) at 120 min, 2 μM in data set [2] (Caco-2, pH 7.4, Papp) was determined as 1.36 ×10⁻⁶ cm/s. Further, the “Inhibition of cytochrome P450 enzyme” value at Cyp1 A2, at Cyp1 A1 and on Cyp1B1 was “strongly inhibit” in each case. For the same compound, the IC50 in the data set with inducible COX-2 is 42 µM. Also, the recovery at 120 min, 2 μM turned out to be 95% in data set [3] (Rep. 1), 99% in data set [3] (Rep. 2) and 97% in data set [3] (average N = 2).
With Lucifer Yellow [reference compound], in the data set on Caco-2 cell monolayers [1] (all monolayers after exposure to test article), the “Lucifer yellow Papp, post-experiment integrity control” value was below 0.8 ×10⁻⁶ cm/s. The compound further showed a Papp in the data set with Caco-2 cell monolayers [4] of 0.13 ×10⁻⁶ cm/s.
